Assay results taken from Sander's compilation of Henry's law constants (doi:10.1016/s0378-3812(02)00087-0).

How the values were obtained:
[1] = Henry solubility constant Hcp at 303 K (mol/(m3 Pa)); conditions: reference: Hovorka et al. (2002)
[2] = Henry solubility constant Hcp at 298.15 K (mol/(m3 Pa)); conditions: reference: Hovorka et al. (2002)

SMILES | Henry solubility constant Hcp [2] | Henry solubility constant Hcp at 303 K [1]
COCC(=O)OC [methyl methoxyacetate] | – | 2.5
CC(C)CO [2-methyl-1-propanol] | 0.67 | –
COCCOC(C)=O [2-methoxyethyl ethanoate] | – | 3
CCOCCOC(C)=O [2-ethoxyethyl ethanoate] | – | 3
C=CC#N [2-propenenitrile] | – | 0.076
COC(=O)CC(C)=O [3-oxobutanoic acid, methyl ester] | – | 6.4

Second part, led by results:

Henry solubility constant Hcp [2] | SMILES | Henry solubility constant Hcp at 303 K [1]
0.32 | CC#N [ethanenitrile] | –
0.083 | COC(C)=O [methyl ethanoate] | –
0.82 | O=C1CCCC1 [cyclopentanone] | –
2.2 | OC1CCCC1 [cyclopentanol] | –
0.86 | O=C1CCCCC1 [cyclohexanone] | –
